In US6476019B1, “Spirocyclic ligands for sigma receptors, and libraries and methods of use thereof” (Sepracor Inc., priority 1999, dated 2002):

Assays:
[1] = target: human serotonin 5-HT2B (Homo sapiens, UniProt P41595); assay: Behavioral receptor assays: 5-HT2B; type: binding; details: read-out: Receptors (IC50) 5-HT2B
Procedure: (§1) Various compounds of the present invention (19, 31, and 32) were evaluated in a group of assays based on mammalian cellular receptors associated with behavior. The group consisted of assays base on human dopamine D1, D2L, D3, D4.2, D4.4, D4.7, and D5 receptors, and the transporter; human serotonin 5-HT1A, 5-HT1B, 5-HT1D, 5-HT2A, 5-HT2B, 5-HT2C, 5-HT3, 5-HT5A, 5-HT6, and 5-HT7 receptors, and the human serotonin transporter; guinea pig 5-HT4 and sigma-1 receptors; rat sigma-2 and muscarinic receptors; and human NK1-3 receptors. The following table presents a subset of the results of these assays.

[2] = tested on: Male Wistar rats; assay: MK-801-Induced Psychosis Model; type: in vivo, rat; details: rat, 1 mg/kg i.p.; MK-801 0.3 mg/kg i.p.
Description: The non-competitive NMDA receptor antagonist MK-801 induces stereotypies and hyperactivity in rodents (1) by interacting with the NMDA receptor-associated ion channel. Phencyclidine, which also interferes with the NMDA receptor, produces psychotic effects in humans similar in many respects to schizophrenia. […] Therefore the MK-801-induced activity and stereotypies in rats may represent an appropriate animal model to test the potential efficacy of antipsychotic drugs.
Male Wistar rats (Iffa Crédo, St Germain/l'Arbresle, France), weight 250-300 g were housed 2 per cage on a 12 h/12 h light dark cycle (lights on at 7.00 a.m.) at a room temperature of 21±2° C. for a minimum of 5 days before testing. All animals had access to commercial food and tap water ad libitum.
On the day of the experiment, rats were treated with either reference drug vehicle, the reference drugs haloperidol or clozapine the test compound vehicle or test compounds. After administration, the rats were returned to their home cages for 15 minutes. […] The remaining rats treated with placebo received a second injection of vehicle. The standard injection volume was 2.0 ml/kg. After 10 minutes in the home cages, rats were transferred to the test box (Plexiglas, 29×12×12 cm), 5 minutes before the assessment for accomodation. The test box was cleaned with 70% ethanol before each assessment. Stereotypies, defined as wall-contacts with the snout, and locomotion, defined as turn-rounds of 180°, were assessed during 5 minute periods.

[3] = tested on: Male rats; assay: Elevated plus maze test (anxiolytic effects); type: in vivo; details: rat, doses 1 mg/kg and 5 mg/kg
Description: In the present study, 32 was investigated on measures of anxiety in an elevated plus-maze test in the rat. In this test, an anxiolytic effect is defined as an increase in the percentage of total entries made onto the open arms and an increase in the percentage of time spent on the open arms of the elevated plus-maze. Anxiogenic drugs reduce both of these measures.
Male rats (Iffa Crédo, St Germain/l'Arbresle, France), weight 220−320 g ate the beginning of the experiment were housed 2 per cage on a 12 h/12 h light dark cycle (lights on at 7.00 a.m.) at a room temperature of 21±2° C. for a minimum of 5 days before testing. All animals had access to commercial food and tap water ad libitum.
The elevated plus maze test consists of four arms connected by a central square, the arms are all horizontal and at 90° […]. angle from each other making the shape of a plus sign. The maze is raised to a height of 50 cm from the ground. […] These arms are therefore referred to as the enclosed arms, respectively.
Each test was started by placing the rat at the intersect of the maze arms facing into one of the enclosed arms. The rat had free access to all 4 arms for the period of 5 min. The number and duration of entries into each arm during this time were scored manually.
Undruged rats typically spend 30-60 seconds on the open arms and about 3 minutes on the closed arms. […]

[4] = target: human serotonin 5-HT2A (Homo sapiens, UniProt P28223); assay: Behavioral receptor assays: 5-HT2A; type: binding; details: read-out: Receptors (IC50) 5-HT2A
Procedure: as §1

[5] = target: Human Orphanin (ORL1) (Homo sapiens, UniProt P41146); assay: Additional receptor assay; type: binding
Human Orphanin (ORL1), sequence (P41146 whole entry): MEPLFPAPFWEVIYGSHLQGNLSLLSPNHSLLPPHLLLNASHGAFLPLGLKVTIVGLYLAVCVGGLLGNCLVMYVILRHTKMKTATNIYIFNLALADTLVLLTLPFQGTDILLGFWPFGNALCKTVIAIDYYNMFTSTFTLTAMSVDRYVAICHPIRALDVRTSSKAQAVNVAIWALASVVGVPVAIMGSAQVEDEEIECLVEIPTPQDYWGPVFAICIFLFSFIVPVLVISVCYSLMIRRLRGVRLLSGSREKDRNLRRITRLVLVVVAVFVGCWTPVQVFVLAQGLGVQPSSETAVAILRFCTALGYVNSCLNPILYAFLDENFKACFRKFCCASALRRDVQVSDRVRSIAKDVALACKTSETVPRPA
Procedure: (§2) Results of Additional Receptor Assays Performed on Compound 31 at a Concentration of 10 μM

[6] = tested on: Rat Adrenergic α1; assay: Additional receptor assay; type: binding; details: 10 μM
Procedure: as §2

[7] = tested on: Rat Glutamate, NMDA (Phencyclidine); assay: Additional receptor assay; type: binding; details: 10 μM
Procedure: as §2

[8] = target: Rat GABAA Benzodiazepine (Peripheral) (Rattus norvegicus, UniProt P16257); assay: Additional receptor assay; type: binding
Procedure: as §2

[9] = target: Human Adrenergic β2 (Homo sapiens, UniProt P07550); assay: Additional receptor assay; type: binding
Human Adrenergic β2, sequence (P07550 whole entry): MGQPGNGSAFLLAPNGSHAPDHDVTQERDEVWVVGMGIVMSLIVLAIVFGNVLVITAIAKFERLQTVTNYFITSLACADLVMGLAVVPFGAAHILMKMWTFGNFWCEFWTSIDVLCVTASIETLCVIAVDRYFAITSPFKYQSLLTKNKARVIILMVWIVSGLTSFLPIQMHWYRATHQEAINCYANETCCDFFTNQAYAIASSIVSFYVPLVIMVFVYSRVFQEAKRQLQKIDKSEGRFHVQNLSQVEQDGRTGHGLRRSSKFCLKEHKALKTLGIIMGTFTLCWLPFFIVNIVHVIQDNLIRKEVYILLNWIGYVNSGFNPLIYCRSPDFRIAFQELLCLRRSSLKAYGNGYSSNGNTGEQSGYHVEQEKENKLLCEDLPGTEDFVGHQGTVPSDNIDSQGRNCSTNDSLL
Procedure: as §2

[10] = target: Rat GABAB (Rattus norvegicus, UniProt Q9Z0U4); assay: Additional receptor assay; type: binding; details: 10 μM
Rat GABAB, sequence (Q9Z0U4 17-960 limits assumed): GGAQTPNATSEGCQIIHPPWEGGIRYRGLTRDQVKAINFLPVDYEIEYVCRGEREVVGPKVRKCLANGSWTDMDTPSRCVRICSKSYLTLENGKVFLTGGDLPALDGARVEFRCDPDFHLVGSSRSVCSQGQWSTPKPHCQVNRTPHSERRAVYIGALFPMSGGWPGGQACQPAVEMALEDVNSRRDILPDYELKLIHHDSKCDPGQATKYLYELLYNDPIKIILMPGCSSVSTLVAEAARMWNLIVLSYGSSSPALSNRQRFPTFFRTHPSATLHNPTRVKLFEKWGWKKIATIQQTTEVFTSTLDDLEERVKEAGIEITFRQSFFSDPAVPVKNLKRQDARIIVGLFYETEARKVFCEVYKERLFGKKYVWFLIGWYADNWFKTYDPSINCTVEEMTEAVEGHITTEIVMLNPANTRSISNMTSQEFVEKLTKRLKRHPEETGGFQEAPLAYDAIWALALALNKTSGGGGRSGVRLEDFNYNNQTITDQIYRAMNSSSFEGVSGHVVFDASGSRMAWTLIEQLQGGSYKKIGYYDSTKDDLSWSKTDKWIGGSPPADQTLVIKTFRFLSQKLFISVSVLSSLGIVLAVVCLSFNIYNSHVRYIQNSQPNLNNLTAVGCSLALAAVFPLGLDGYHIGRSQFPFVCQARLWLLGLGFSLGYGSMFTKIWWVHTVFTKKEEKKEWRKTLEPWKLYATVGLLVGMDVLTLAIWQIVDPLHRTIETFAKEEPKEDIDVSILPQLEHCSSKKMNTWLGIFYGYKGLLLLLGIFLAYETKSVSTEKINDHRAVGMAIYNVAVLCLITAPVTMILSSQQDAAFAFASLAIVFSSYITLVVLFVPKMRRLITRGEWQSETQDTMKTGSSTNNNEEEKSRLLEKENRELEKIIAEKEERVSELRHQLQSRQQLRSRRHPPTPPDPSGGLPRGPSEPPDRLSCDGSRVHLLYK
Rat GABAB, sequence (O88871 41-940 partner): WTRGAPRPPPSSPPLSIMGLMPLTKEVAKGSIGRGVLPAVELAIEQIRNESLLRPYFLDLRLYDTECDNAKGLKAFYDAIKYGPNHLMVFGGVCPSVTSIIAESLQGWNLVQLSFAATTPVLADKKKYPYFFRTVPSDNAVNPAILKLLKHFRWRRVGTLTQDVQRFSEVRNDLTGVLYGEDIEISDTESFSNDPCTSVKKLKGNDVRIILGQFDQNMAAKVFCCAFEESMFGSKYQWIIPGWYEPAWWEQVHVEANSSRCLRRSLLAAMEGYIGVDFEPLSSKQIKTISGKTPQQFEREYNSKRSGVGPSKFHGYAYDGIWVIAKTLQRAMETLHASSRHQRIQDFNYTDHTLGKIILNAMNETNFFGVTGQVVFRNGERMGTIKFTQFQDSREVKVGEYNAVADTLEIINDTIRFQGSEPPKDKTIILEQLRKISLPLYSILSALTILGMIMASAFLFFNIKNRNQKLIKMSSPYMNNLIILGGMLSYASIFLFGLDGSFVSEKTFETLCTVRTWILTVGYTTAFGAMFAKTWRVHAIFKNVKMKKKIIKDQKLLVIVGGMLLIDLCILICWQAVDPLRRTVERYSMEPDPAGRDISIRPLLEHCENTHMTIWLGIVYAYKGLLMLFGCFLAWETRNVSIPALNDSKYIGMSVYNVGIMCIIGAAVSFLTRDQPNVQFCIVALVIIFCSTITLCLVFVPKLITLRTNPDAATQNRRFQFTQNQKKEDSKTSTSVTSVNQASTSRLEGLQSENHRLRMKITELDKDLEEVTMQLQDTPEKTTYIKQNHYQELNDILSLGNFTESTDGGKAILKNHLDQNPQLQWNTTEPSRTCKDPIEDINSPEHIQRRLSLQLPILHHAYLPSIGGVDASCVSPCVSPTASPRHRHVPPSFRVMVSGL
Procedure: as §2

[11] = tested on: Rat GABAA Transporter; assay: Additional receptor assay; type: binding; details: 10 μM
Procedure: as §2

[12] = target: Human Adrenergic α2C (Homo sapiens, UniProt P18825); assay: Additional receptor assay; type: binding
Human Adrenergic α2C, sequence (P18825 whole entry): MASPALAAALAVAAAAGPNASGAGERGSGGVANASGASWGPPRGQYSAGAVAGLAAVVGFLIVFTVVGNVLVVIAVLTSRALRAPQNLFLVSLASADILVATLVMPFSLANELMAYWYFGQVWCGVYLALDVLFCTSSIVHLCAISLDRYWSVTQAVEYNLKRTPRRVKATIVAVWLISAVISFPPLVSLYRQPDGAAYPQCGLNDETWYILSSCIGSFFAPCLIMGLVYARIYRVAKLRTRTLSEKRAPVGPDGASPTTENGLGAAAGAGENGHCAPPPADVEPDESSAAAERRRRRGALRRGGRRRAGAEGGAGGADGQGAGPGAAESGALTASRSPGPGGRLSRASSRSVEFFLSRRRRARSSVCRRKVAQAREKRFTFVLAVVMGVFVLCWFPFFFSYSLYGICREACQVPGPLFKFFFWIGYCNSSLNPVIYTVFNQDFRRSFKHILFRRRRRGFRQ
Procedure: as §2

[13] = tested on: Rat Glutamate, NMDA (Agonist); assay: Additional receptor assay; type: binding; details: 10 μM
Procedure: as §2

[14] = tested on: Rat GABAA Agonist Site; assay: Additional receptor assay; type: binding; details: 10 μM
Procedure: as §2

[15] = tested on: Rat GABAA Chloride Channel; assay: Additional receptor assay; type: binding; details: 10 μM
Procedure: as §2

[16] = target: Human Adrenergic β1 (Homo sapiens, UniProt P08588); assay: Additional receptor assay; type: binding
Human Adrenergic β1, sequence (P08588 whole entry): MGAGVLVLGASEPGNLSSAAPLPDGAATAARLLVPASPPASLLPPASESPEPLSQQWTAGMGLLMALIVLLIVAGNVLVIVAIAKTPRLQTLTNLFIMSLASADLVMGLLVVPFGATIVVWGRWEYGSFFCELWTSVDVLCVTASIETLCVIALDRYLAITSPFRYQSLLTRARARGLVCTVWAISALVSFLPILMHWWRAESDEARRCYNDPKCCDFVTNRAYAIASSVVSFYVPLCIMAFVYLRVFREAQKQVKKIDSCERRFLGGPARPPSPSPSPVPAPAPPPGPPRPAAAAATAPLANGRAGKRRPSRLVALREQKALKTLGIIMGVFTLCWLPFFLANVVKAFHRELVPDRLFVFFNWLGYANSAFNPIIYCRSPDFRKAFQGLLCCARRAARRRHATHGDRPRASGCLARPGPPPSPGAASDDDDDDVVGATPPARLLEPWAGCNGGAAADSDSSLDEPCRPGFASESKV
Procedure: as §2

[17] = target: Human Adrenergic α2A (Homo sapiens, UniProt P08913); assay: Additional receptor assay; type: binding
Human Adrenergic α2A, sequence (P08913 whole entry): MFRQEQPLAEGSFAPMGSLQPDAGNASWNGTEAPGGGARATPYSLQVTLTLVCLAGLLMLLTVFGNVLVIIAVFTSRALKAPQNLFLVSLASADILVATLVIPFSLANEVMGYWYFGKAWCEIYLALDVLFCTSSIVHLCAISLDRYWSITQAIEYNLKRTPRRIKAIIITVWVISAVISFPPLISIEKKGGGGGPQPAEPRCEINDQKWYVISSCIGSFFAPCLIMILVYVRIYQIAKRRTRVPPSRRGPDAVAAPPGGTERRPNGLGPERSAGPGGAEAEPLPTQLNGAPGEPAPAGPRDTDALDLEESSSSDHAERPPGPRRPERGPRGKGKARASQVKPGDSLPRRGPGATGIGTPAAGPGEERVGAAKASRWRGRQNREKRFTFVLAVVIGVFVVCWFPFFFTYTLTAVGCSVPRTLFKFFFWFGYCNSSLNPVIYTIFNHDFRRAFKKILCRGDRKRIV
Procedure: as §2

[18] = target: Rat Glutamate, NMDA (Glycine) (Rattus norvegicus, UniProt P35439); assay: Additional receptor assay; type: binding
Procedure: as §2

[19] = tested on: Rat GABAA Benzodiazepine (Central); assay: Additional receptor assay; type: binding; details: 10 μM
Procedure: as §2

[20] = target: Human Adrenergic β3 (Homo sapiens, UniProt P13945); assay: Additional receptor assay; type: binding
Human Adrenergic β3, sequence (P13945 whole entry): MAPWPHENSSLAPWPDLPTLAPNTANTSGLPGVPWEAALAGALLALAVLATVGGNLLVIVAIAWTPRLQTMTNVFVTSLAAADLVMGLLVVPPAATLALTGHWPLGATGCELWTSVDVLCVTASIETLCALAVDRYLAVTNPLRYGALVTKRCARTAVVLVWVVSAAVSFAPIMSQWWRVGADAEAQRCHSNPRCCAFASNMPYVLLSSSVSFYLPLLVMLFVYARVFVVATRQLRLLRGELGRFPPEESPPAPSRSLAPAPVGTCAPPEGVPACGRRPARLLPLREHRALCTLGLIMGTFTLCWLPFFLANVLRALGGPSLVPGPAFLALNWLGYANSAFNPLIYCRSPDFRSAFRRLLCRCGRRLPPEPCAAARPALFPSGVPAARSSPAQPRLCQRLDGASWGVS
Procedure: as §2

[21] = tested on: Rat Glutamate, NMDA (Polyamine); assay: Additional receptor assay; type: binding; details: 10 μM
Procedure: as §2

human serotonin 5-HT2B, sequence (P41595 whole entry): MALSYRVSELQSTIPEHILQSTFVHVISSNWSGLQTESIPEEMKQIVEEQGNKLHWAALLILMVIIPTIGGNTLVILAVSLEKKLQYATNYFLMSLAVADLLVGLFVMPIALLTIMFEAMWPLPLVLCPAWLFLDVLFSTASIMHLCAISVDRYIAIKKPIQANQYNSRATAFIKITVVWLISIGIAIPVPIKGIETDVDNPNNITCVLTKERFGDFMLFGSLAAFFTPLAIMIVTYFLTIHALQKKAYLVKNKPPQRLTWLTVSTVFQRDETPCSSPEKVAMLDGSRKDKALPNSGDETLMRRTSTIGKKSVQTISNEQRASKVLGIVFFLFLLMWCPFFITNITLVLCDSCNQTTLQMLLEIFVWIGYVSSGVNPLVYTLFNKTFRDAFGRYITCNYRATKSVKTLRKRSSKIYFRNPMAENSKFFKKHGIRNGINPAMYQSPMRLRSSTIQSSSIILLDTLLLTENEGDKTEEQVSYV

For `OC1CCC2(CCN(Cc3ccc(F)cc3)CC2)Nc2ccccc21` (racemic) [Compound 32, 1′-(4-fluorobenzyl)-3,4-dihydrospiro[5H-1-benzazepine-2(1H)-4′-piperidin]-5ol], the IC50 [1] was < 1000 nM, the MK-801-induced locomotion [2] was “caused a reduction” and the MK-801-induced stereotypies [2] was “caused a reduction”. The “anxiolytic effect in elevated plus-maze” value [3] was “tendency towards an anxiolytic effects” and the IC50 [4] was > 1000 nM.

With `O=C1CCC2(CCN(Cc3ccc(F)cc3)CC2)Nc2ccccc21` [Compound 31, 1′-(4-fluorobenzyl)-3,4-dihydrospiro[5H-1-benzazepine-2(1H)-4′-piperidin]-5-one] the inhibition at 10 µM [5] was 12%, the “% Inhibition Rat Adrenergic α1” value [6] was 21% and the “% Inhibition Rat Glutamate, NMDA (Phencyclidine)” value [7] was “No Inhibition”. The inhibition at 10 µM [8] was 16%, the inhibition at 10 µM [9] was 15% and the “% Inhibition Rat GABAB” value [10] was “No Inhibition”. The “% Inhibition Rat GABAA Transporter” value [11] was “No Inhibition”, the inhibition at 10 µM [12] was 2% and the “% Inhibition Rat Glutamate, NMDA (Agonist)” value [13] was “No Inhibition”. The “% Inhibition Rat GABAA Agonist Site” value [14] was 13%, the “% Inhibition Rat GABAA Chloride Channel” value [15] was “No Inhibition” and the inhibition at 10 µM [16] was 3%. The inhibition at 10 µM [17] was 34%, the inhibition at 10 µM [18] was 2% and the “% Inhibition Rat GABAA Benzodiazepine (Central)” value [19] was 6%. The inhibition at 10 µM [20] was 19% and the “% Inhibition Rat Glutamate, NMDA (Polyamine)” value [21] was 12%.
